Experimental data reported in patent US9513294B2, “Megastokes amino-triazolyl-BODIPY compounds and applications to live neuron staining and human serum albumin FA1 drug site probing” (National University of Singapore, priority 2012, dated 2016).

test: Absorbance and fluorescence emission spectra (SpectraMax M2); assay type: physicochemical; settings: MK library, Table 5
Method in brief: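 Absorbance and emission maxima measured on a SpectraMax M2 spectrophotometer, which also gave quantum yield data; analysis in GraphPrism.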

| Structure (SMILES) | λmax Absorp. [nm] | λmax Emission [nm] |
| --- | --- | --- |
| Nc1ccc(C2=C3C=CC(NCc4cc(F)cc(F)c4)=[N+]3[B-](F)(F)n3c2ccc3-n2cc(CCc3ccccc3)nn2)cc1 [MK412-19] | 475 | 564 |
| CC(C)Cc1cn(-c2ccc3n2[B-](F)(F)[N+]2=C(NCc4cc(F)cc(F)c4)C=CC2=C3c2ccc(N)cc2)nn1 [MK412-43] | 476 | 564 |
| CCCc1cn(-c2ccc3n2[B-](F)(F)[N+]2=C(NCc4cc(F)cc(F)c4)C=CC2=C3c2ccc(N)cc2)nn1 [MK412-48] | 474 | 563 |
| CCCCCC(O)c1cn(-c2ccc3n2[B-](F)(F)[N+]2=C(NCc4cc(F)cc(F)c4)C=CC2=C3c2ccc(N)cc2)nn1 (stereo not drawn) [MK412-69] | 476 | 563 |
| Nc1ccc(C2=C3C=CC(NCc4cc(F)cc(F)c4)=[N+]3[B-](F)(F)n3c2ccc3-n2cc(CO)nn2)cc1 [MK412-70] | 470 | 562 |

same assay, conditions: MKAC compound library; absorbance maximum

| Structure (SMILES) | λmax Abs. (nm) |
| --- | --- |
| CCCC(C)c1cn(-c2ccc3n2[B-](F)(F)[N+]2=C(NCc4ccccc4C)C=CC2=C3c2ccc(NC(C)=O)cc2)nn1 (stereo not drawn) [MKA101-3] | 464 |
| CCCC(C)c1cn(-c2ccc3n2[B-](F)(F)[N+]2=C(N4CC(C)OC(C)C4)C=CC2=C3c2ccc(NC(C)=O)cc2)nn1 (stereo not drawn) [MKAC20-3] | 466 |
| CC(=O)Nc1ccc(C2=C3C=CC(N4CC(C)OC(C)C4)=[N+]3[B-](F)(F)n3c2ccc3-n2cc(C3CC3)nn2)cc1 (stereo not drawn) [MKAC20-4] | 466 |
| CC(=O)Nc1ccc(C2=C3C=CC(N4CC(C)OC(C)C4)=[N+]3[B-](F)(F)n3c2ccc3-n2cc(C3CCCC3)nn2)cc1 (stereo not drawn) [MKAC20-5] | 467 |
| CC(=O)Nc1ccc(C2=C3C=CC(N4CC(C)OC(C)C4)=[N+]3[B-](F)(F)n3c2ccc3-n2cc(CC3CCCCC3)nn2)cc1 (stereo not drawn) [MKAC20-8] | 466 |
| CC(=O)Nc1ccc(C2=C3C=CC(N4CC(C)OC(C)C4)=[N+]3[B-](F)(F)n3c2ccc3-n2cc(CN(C)Cc3ccccc3)nn2)cc1 (stereo not drawn) [MKAC20-18] | 467 |
| CC(=O)Nc1ccc(C2=C3C=CC(N4CC(C)OC(C)C4)=[N+]3[B-](F)(F)n3c2ccc3-n2cc(CCc3ccccc3)nn2)cc1 (stereo not drawn) [MKAC20-19] | 467 |
| CC(=O)Nc1ccc(C2=C3C=CC(N4CC(C)OC(C)C4)=[N+]3[B-](F)(F)n3c2ccc3-n2cc(CC(C)C)nn2)cc1 (stereo not drawn) [MKAC20-43] | 467 |
| CCCc1cn(-c2ccc3n2[B-](F)(F)[N+]2=C(N4CC(C)OC(C)C4)C=CC2=C3c2ccc(NC(C)=O)cc2)nn1 (stereo not drawn) [MKAC20-48] | 467 |
| CCCCCC(O)c1cn(-c2ccc3n2[B-](F)(F)[N+]2=C(N4CC(C)OC(C)C4)C=CC2=C3c2ccc(NC(C)=O)cc2)nn1 (stereo not drawn) [MKAC20-69] | 469 |
| CC(=O)Nc1ccc(C2=C3C=CC(N4CC(C)OC(C)C4)=[N+]3[B-](F)(F)n3c2ccc3-n2cc(CO)nn2)cc1 (stereo not drawn) [MKAC20-70] | 467 |
| CCCC(C)c1cn(-c2ccc3n2[B-](F)(F)[N+]2=C(N4CCc5ccccc5C4)C=CC2=C3c2ccc(NC(C)=O)cc2)nn1 (stereo not drawn) [MKAC66-3] | 469 |
| CC(=O)Nc1ccc(C2=C3C=CC(N4CCc5ccccc5C4)=[N+]3[B-](F)(F)n3c2ccc3-n2cc(C3CC3)nn2)cc1 [MKAC66-4] | 469 |
| CC(=O)Nc1ccc(C2=C3C=CC(N4CCc5ccccc5C4)=[N+]3[B-](F)(F)n3c2ccc3-n2cc(C3CCCC3)nn2)cc1 [MKAC66-5] | 470 |
| CC(=O)Nc1ccc(C2=C3C=CC(N4CCc5ccccc5C4)=[N+]3[B-](F)(F)n3c2ccc3-n2cc(CC3CCCCC3)nn2)cc1 [MKAC66-8] | 469 |

same assay, conditions: MKAC compound library; fluorescence emission maximum

| Structure (SMILES) | λmax Em. (nm) |
| --- | --- |
| CCCC(C)c1cn(-c2ccc3n2[B-](F)(F)[N+]2=C(NCc4ccccc4C)C=CC2=C3c2ccc(NC(C)=O)cc2)nn1 (stereo not drawn) [MKA101-3] | 562 |
| CCCC(C)c1cn(-c2ccc3n2[B-](F)(F)[N+]2=C(N4CC(C)OC(C)C4)C=CC2=C3c2ccc(NC(C)=O)cc2)nn1 (stereo not drawn) [MKAC20-3] | 583 |
| CC(=O)Nc1ccc(C2=C3C=CC(N4CC(C)OC(C)C4)=[N+]3[B-](F)(F)n3c2ccc3-n2cc(C3CC3)nn2)cc1 (stereo not drawn) [MKAC20-4] | 585 |
| CC(=O)Nc1ccc(C2=C3C=CC(N4CC(C)OC(C)C4)=[N+]3[B-](F)(F)n3c2ccc3-n2cc(C3CCCC3)nn2)cc1 (stereo not drawn) [MKAC20-5] | 580 |
| CC(=O)Nc1ccc(C2=C3C=CC(N4CC(C)OC(C)C4)=[N+]3[B-](F)(F)n3c2ccc3-n2cc(CC3CCCCC3)nn2)cc1 (stereo not drawn) [MKAC20-8] | 583 |
| CC(=O)Nc1ccc(C2=C3C=CC(N4CC(C)OC(C)C4)=[N+]3[B-](F)(F)n3c2ccc3-n2cc(CN(C)Cc3ccccc3)nn2)cc1 (stereo not drawn) [MKAC20-18] | 583 |
| CC(=O)Nc1ccc(C2=C3C=CC(N4CC(C)OC(C)C4)=[N+]3[B-](F)(F)n3c2ccc3-n2cc(CCc3ccccc3)nn2)cc1 (stereo not drawn) [MKAC20-19] | 579 |
| CC(=O)Nc1ccc(C2=C3C=CC(N4CC(C)OC(C)C4)=[N+]3[B-](F)(F)n3c2ccc3-n2cc(CC(C)C)nn2)cc1 (stereo not drawn) [MKAC20-43] | 586 |
| CCCc1cn(-c2ccc3n2[B-](F)(F)[N+]2=C(N4CC(C)OC(C)C4)C=CC2=C3c2ccc(NC(C)=O)cc2)nn1 (stereo not drawn) [MKAC20-48] | 581 |
| CCCCCC(O)c1cn(-c2ccc3n2[B-](F)(F)[N+]2=C(N4CC(C)OC(C)C4)C=CC2=C3c2ccc(NC(C)=O)cc2)nn1 (stereo not drawn) [MKAC20-69] | 590 |
| CC(=O)Nc1ccc(C2=C3C=CC(N4CC(C)OC(C)C4)=[N+]3[B-](F)(F)n3c2ccc3-n2cc(CO)nn2)cc1 (stereo not drawn) [MKAC20-70] | 586 |
| CCCC(C)c1cn(-c2ccc3n2[B-](F)(F)[N+]2=C(N4CCc5ccccc5C4)C=CC2=C3c2ccc(NC(C)=O)cc2)nn1 (stereo not drawn) [MKAC66-3] | 583 |
| CC(=O)Nc1ccc(C2=C3C=CC(N4CCc5ccccc5C4)=[N+]3[B-](F)(F)n3c2ccc3-n2cc(C3CC3)nn2)cc1 [MKAC66-4] | 580 |
| CC(=O)Nc1ccc(C2=C3C=CC(N4CCc5ccccc5C4)=[N+]3[B-](F)(F)n3c2ccc3-n2cc(C3CCCC3)nn2)cc1 [MKAC66-5] | 583 |
| CC(=O)Nc1ccc(C2=C3C=CC(N4CCc5ccccc5C4)=[N+]3[B-](F)(F)n3c2ccc3-n2cc(CC3CCCCC3)nn2)cc1 [MKAC66-8] | 578 |

test: Quantum yield measurements versus Acridine Yellow in EtOH; assay type: physicochemical; settings: MK library, Table 5; excitation 460 nm
Method in brief: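 Fluorescence quantum yield is relative to Acridine Yellow in EtOH (Φ 0.47), with excitation at 460 nm. Integrated emission at 510–700 nm was corrected for absorbance at the excitation wavelength and for solvent refractive index.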

| Structure (SMILES) | φ (quantum yield) [%] |
| --- | --- |
| Nc1ccc(C2=C3C=CC(NCc4cc(F)cc(F)c4)=[N+]3[B-](F)(F)n3c2ccc3-n2cc(CCc3ccccc3)nn2)cc1 [MK412-19] | 0.92 |
| CC(C)Cc1cn(-c2ccc3n2[B-](F)(F)[N+]2=C(NCc4cc(F)cc(F)c4)C=CC2=C3c2ccc(N)cc2)nn1 [MK412-43] | 0.86 |
| CCCc1cn(-c2ccc3n2[B-](F)(F)[N+]2=C(NCc4cc(F)cc(F)c4)C=CC2=C3c2ccc(N)cc2)nn1 [MK412-48] | 1.55 |
| CCCCCC(O)c1cn(-c2ccc3n2[B-](F)(F)[N+]2=C(NCc4cc(F)cc(F)c4)C=CC2=C3c2ccc(N)cc2)nn1 (stereo not drawn) [MK412-69] | 1.98 |
| Nc1ccc(C2=C3C=CC(NCc4cc(F)cc(F)c4)=[N+]3[B-](F)(F)n3c2ccc3-n2cc(CO)nn2)cc1 [MK412-70] | 1.89 |

same assay, conditions: MKAC compound library; quantum yield

| Structure (SMILES) | φ (%) |
| --- | --- |
| CCCC(C)c1cn(-c2ccc3n2[B-](F)(F)[N+]2=C(NCc4ccccc4C)C=CC2=C3c2ccc(NC(C)=O)cc2)nn1 (stereo not drawn) [MKA101-3] | 21.57 |
| CCCC(C)c1cn(-c2ccc3n2[B-](F)(F)[N+]2=C(N4CC(C)OC(C)C4)C=CC2=C3c2ccc(NC(C)=O)cc2)nn1 (stereo not drawn) [MKAC20-3] | 2.40 |
| CC(=O)Nc1ccc(C2=C3C=CC(N4CC(C)OC(C)C4)=[N+]3[B-](F)(F)n3c2ccc3-n2cc(C3CC3)nn2)cc1 (stereo not drawn) [MKAC20-4] | 3.64 |
| CC(=O)Nc1ccc(C2=C3C=CC(N4CC(C)OC(C)C4)=[N+]3[B-](F)(F)n3c2ccc3-n2cc(C3CCCC3)nn2)cc1 (stereo not drawn) [MKAC20-5] | 3.47 |
| CC(=O)Nc1ccc(C2=C3C=CC(N4CC(C)OC(C)C4)=[N+]3[B-](F)(F)n3c2ccc3-n2cc(CC3CCCCC3)nn2)cc1 (stereo not drawn) [MKAC20-8] | 4.98 |
| CC(=O)Nc1ccc(C2=C3C=CC(N4CC(C)OC(C)C4)=[N+]3[B-](F)(F)n3c2ccc3-n2cc(CN(C)Cc3ccccc3)nn2)cc1 (stereo not drawn) [MKAC20-18] | 2.13 |
| CC(=O)Nc1ccc(C2=C3C=CC(N4CC(C)OC(C)C4)=[N+]3[B-](F)(F)n3c2ccc3-n2cc(CCc3ccccc3)nn2)cc1 (stereo not drawn) [MKAC20-19] | 3.12 |
| CC(=O)Nc1ccc(C2=C3C=CC(N4CC(C)OC(C)C4)=[N+]3[B-](F)(F)n3c2ccc3-n2cc(CC(C)C)nn2)cc1 (stereo not drawn) [MKAC20-43] | 1.55 |
| CCCc1cn(-c2ccc3n2[B-](F)(F)[N+]2=C(N4CC(C)OC(C)C4)C=CC2=C3c2ccc(NC(C)=O)cc2)nn1 (stereo not drawn) [MKAC20-48] | 2.93 |
| CCCCCC(O)c1cn(-c2ccc3n2[B-](F)(F)[N+]2=C(N4CC(C)OC(C)C4)C=CC2=C3c2ccc(NC(C)=O)cc2)nn1 (stereo not drawn) [MKAC20-69] | 2.23 |
| CC(=O)Nc1ccc(C2=C3C=CC(N4CC(C)OC(C)C4)=[N+]3[B-](F)(F)n3c2ccc3-n2cc(CO)nn2)cc1 (stereo not drawn) [MKAC20-70] | 1.33 |
| CCCC(C)c1cn(-c2ccc3n2[B-](F)(F)[N+]2=C(N4CCc5ccccc5C4)C=CC2=C3c2ccc(NC(C)=O)cc2)nn1 (stereo not drawn) [MKAC66-3] | 2.40 |
| CC(=O)Nc1ccc(C2=C3C=CC(N4CCc5ccccc5C4)=[N+]3[B-](F)(F)n3c2ccc3-n2cc(C3CC3)nn2)cc1 [MKAC66-4] | 2.56 |
| CC(=O)Nc1ccc(C2=C3C=CC(N4CCc5ccccc5C4)=[N+]3[B-](F)(F)n3c2ccc3-n2cc(C3CCCC3)nn2)cc1 [MKAC66-5] | 1.96 |
| CC(=O)Nc1ccc(C2=C3C=CC(N4CCc5ccccc5C4)=[N+]3[B-](F)(F)n3c2ccc3-n2cc(CC3CCCCC3)nn2)cc1 [MKAC66-8] | 2.20 |
